Patent publication US7713949B2, “Compositions and methods for enhancing paracellular permeability across epithelial and endothelial barriers” (The University of North Carolina at Chapel Hill, priority 2000, dated 2010)

What was measured:
MDCK cell monolayers [1] = test: Effect on transepithelial electrical resistance (TEER) across MDCK cell monolayers; format: cell-based, canine; settings: for EC50: 0.5 h, MDCK cells, apical, 30-minute incubation at 37° C., mean ± SD, read-out: EC50 (concentration required to decrease TEER by fifty percent); for Effect on TEER: 30-minute treatment
Protocol: (§1) For transport studies, MDCK cells, derived from normal proximal epithelial kidney cells of a male cocker spaniel, which is model for transport experiments (Cho, M. J., et al. (1989) Pharm. Res. 6:71-77), were grown on TRANSWELL™ multi-well plates. Each well was seeded with 200,000 cells. The cells were then grown in cell media (MEM with 1% antibiotic, supplemented with 10% fetal bovine serum (FBS) and 1% NEAA), and were maintained at 37° C. and 5% CO2. Confluent cells were grown for four days where they differentiated into epithelial cell monolayers as evidenced by the establishment of a stable TEER.
TEER (expressed as Ω·cm^2) serves as a measure of functional integrity of tight junctions. TEER was measured by an EVOM Epithelial Tissue Voltohmeter (World Precision Instruments, Sarasota, Fla.) and an Endohm-12 electrode (World Precision Instruments, Sarasota, Fla.). TEER values of MDCK cells that formed a functional monolayer ranged between 150-250 Ω·cm^2.
Experiments were initiated by adding 0.5 mL of HBSS supplemented with 10 mM HEPES, pH 7.4 (transport buffer) containing compound or vehicle to the apical side of the TRANSWELL™ multi-well plate. […] Data from each experiment were normalized to the response from the vehicle and were reported as the mean±SD of three experiments performed in triplicate.
The effect of akylphosphocholines on TEER was evaluated at several concentrations, and the concentration that caused a 50% decrease in TEER with respect to the untreated control was defined as EC50 (Liu, D. Z., et al. (1999) J. Pharm. Sci. 88:1161-1168; Liu, D. Z., et al. (1999) J. Pharm. Sci. 88:1169-1174).

MDCK cell monolayers [2] = test: Effect on [14C]-mannitol flux across MDCK cell monolayers; format: cell-based, canine; settings: for EC10x (concentration that increases mannitol flux by ten fold): MDCK cells, apical, flux measured between 30 and 60 minutes of treatment, mean ± SD
Protocol: as §1
Mannitol, a hydrophilic compound, cannot readily cross the epithelial membrane, and must transverse the epithelium via the paracellular pathway. Therefore, the flux of mannitol through the epithelium is a reflection of the permeability of the paracellular pathway. Detection of mannitol is accomplished with [^3H] or [^14C] radiolabels.
The integrity of the tight junctions of cell monolayers was monitored with the measurement of TEER prior to the experiment. Transport experiments were initiated by replacing the apical media with 0.5 mL of transport buffer containing compound or vehicle, and [^14C]-mannitol. Concentration of [^14C]-mannitol was 25 μM (55 mCi/mmol). Transport rates were monitored by the measurement of the amount of [^14C]-mannitol accumulated in the basolateral side (1.5 mL) during two 30-minute intervals. The amount of radiolabeled [^14C]-mannitol transported was measured by liquid scintillation counting in a Packard Tri Carb 4000 Series spectrophotometer available from Packard Instrument Company of Meriden, Conn. All transport experiments were carried out under sink conditions (transport experiments were designed such that less than 10% of the total amount of [^14C]-mannitol was present on the basolateral side at any given time). The effect of alkylphosphocholines on the transport of [^14C]-mannitol was normalized to the transport of [^14C]-mannitol in the vehicle-treated cells and was reported as the mean±SD of three experiments performed in triplicate. The EC10x was determined by the concentration of compound that causes a 10-fold increase in mannitol flux with respect to the vehicle treated control.

PLC-β = test: ATP-stimulated PLC activity ([3H]-inositol phosphate accumulation) in MDCK cells; format: cell-based, canine; settings: for Effect on ATP-stimulated PLC (PLC-β) activity: 100 μM ATP; for Effect on ATP-stimulated PLC (PLC-β) activity / IC50: MDCK cells; for IC50: 30 minutes with compound, then 15 minutes stimulation, mean ± SD, read-out: IC50(PLC) (concentration causing fifty percent decrease in ATP- or EGF-stimulated accumulation of [3H]-inositol phosphates)
Protocol: (§2) Measurement of activity of PLC in MDCK cells was determined by an adaptation of a previously published method (Schachter, J. B., et al. (1997) Neuropharm. 36:1181-1187). MDCK cells were seeded at 400,000 cells/well in a 12-well plate and subsequently cultured for four days. MDCK cell monolayers were then labeled with [^3H]-myo-inositol (1.6 μCi/well in 0.4 ml of inositol-free media) for 24 hours at 37° C. Assays were initiated on labeled cells that were removed from the incubator by immediately supplementing the cells with 100 μl of 250 mM HEPES (pH 7.3), containing 100 mM LiCl with or without compound. Subsequently, the cells were incubated for 30 minutes at 37° C. Immediately after the termination of this incubation, ATP (final concentration: 100 μM) or EGF (20 ng/ml) was added.
(§3) The cells were then incubated at 37° C. for 15 minutes to allow accumulation of [^3H]-inositol phosphates. Incubations were terminated by aspiration of the media and the addition of 1 ml of boiling 10 mM EDTA (pH 8.0). The supernatant was applied to AG1 X8 formate columns for chromatographic isolation of [^3H]-inositol phosphates (Berridge, M. J., et al. (1983) Biochem. J. 212:473-482). The amount of [^3H]-inositol phosphates was measured by liquid scintillation counting in a Packard Tri Carb 4000 Series spectrophotometer. Data from each experiment were normalized to the response observed with 100 μM ATP or 20 ng/ml EGF and were reported as the mean±SD of three experiments performed in triplicate. The IC50 (PLC) was determined by the concentration of compound that causes a 50% decrease in ATP- or EGF-stimulated accumulation of [^3H]-inositol phosphates.
To determine the ability alkylphosphocholines to inhibit PLC activity, the ability of these compounds to inhibit the ATP-mediated increases in the levels of inositol phosphates was determined. The separation between the counts from basal and ATP-stimulated levels of [^3H]-inositol-phosphates from MDCK cell monolayers was, however, marginal (approximately 1.5-fold) for a reliable determination of the ability of alkylphosphocholines to inhibit PLC activity. To increase this separation, MDCK cells that were transfected with a plasmid that encoded the P2Y2 receptor were employed. The P2Y2 receptor is G-protein coupled receptor that activates PLC (Pawelczyk, T., and Lowenstein, J. M. (1993) Biochem. Pharm. 45:493-497). The separation between the counts from basal and ATP-stimulated levels of [^3H]-inositol-phosphates from MDCK monolayers that express P2Y2 receptors increased to approximately a 3-fold difference (counts from basal and ATP-stimulated levels of [^3H]-inositol-phosphates ranged from 200 to 400 and 700 to 1200 cpm, respectively).

PLC-γ = test: EGF-stimulated PLC activity ([3H]-inositol phosphate accumulation) in MDCK cells; format: cell-based, canine; settings: 20 ng/ml EGF
Protocol: as §2, §3

[3] = in animals; cited from earlier work
PLC = settings: Perrella et al. 1994; cited from earlier work

| Compound | EC50 (MDCK cell monolayers [1]; Canis lupus familiaris) [µM] | EC10x (concentration that increases mannitol flux by ten fold) (MDCK cell monolayers [2]) [µM] | Effect on ATP-stimulated PLC (PLC-β) activity (PLC-β) | IC50 (PLC-β) [µM] | Effect on EGF-stimulated PLC-γ activity (PLC-γ) | other results |
| --- | --- | --- | --- | --- | --- | --- |
| CCCCCCCCCCCCCCCCOP(=O)([O-])OCC[N+](C)(C)C [C16, Hexadecylphosphocholine] | 29 ± 5 | 30 ± 8 | inhibited ATP-stimulated PLC-β activity | 36 ± 18 | had no effect on EGF-stimulated PLC-γ activity | activity at 30 µM (MDCK cell monolayers [1]; Canis lupus familiaris, MDCK, 2 h, 30 μM, over a two-hour period, read-out: TEER, % of control values): < 10% |
| CCCCCCCCCCCCCCCCCCCCOP(=O)([O-])OCC[N+](C)(C)C [C20] | 71 ± 8 | 73 ± 1 |  | 48 ± 5 |  |  |
| O=c1oc2ccccc2cc1[N+](=O)[O-] [3-nitrocoumarin, reference compound] | 24 ± 1 | 34 ± 5 | no inhibitory activity toward PLC-β | 21 ± 5 | inhibited EGF-stimulated PLC-γ activity |  |
| COc1ccc2c(c1)CC[C@@H]1[C@@H]2CC[C@]2(C)[C@@H](NCCCCCCN3C(=O)CCC3=O)CC[C@@H]12 [U-73,343, reference compound] |  |  | did not decrease TEER or ATP-stimulated PLC activity |  |  | Effect on TEER (MDCK cell monolayers [1]): did not decrease TEER |
| CO[C@@]1(NC(=O)Cc2cccs2)C(=O)N2C(C(=O)O)=C(COC(N)=O)CS[C@@H]21 [cefoxitin] |  |  |  |  |  | Oral bioavailability [3]: less than five percent |
| COc1ccc2c(c1)CCC1C2CCC2(C)C(NCCCCCCN3C(=O)C=CC3=O)CCC12 (centres unmarked) [U-73,122, reference compound] | 6 ± 2 | 6 ± 2 | inhibited ATP-stimulated PLC-β activity | 7 ± 3 | had no effect on EGF-stimulated PLC-γ activity | Effect on TEER (MDCK cell monolayers [1]): potently decreased TEER; Effect on mannitol flux (MDCK cell monolayers [2]; interval between 30 and 60 minutes of treatment): increased mannitol flux |
| CCCCCCCCCCCCCCOP(=O)([O-])OCC[N+](C)(C)C [C14] | 44 ± 11 | 91 ± 11 |  | 73 ± 9 |  |  |
| CCCCCCCCCCCCOP(=O)([O-])OCC[N+](C)(C)C [C12, Dodecylphosphocholine] | 733 ± 32 | 900 ± 100 |  | 275 ± 135 |  | Full extent of PLC inhibition (PLC-β; ATP-stimulated inositol phosphate production): 50% |
| O=c1oc2cc(O)ccc2cc1[N+](=O)[O-] [7-hydroxy-3-nitrocoumarin] |  |  |  |  |  | PLC inhibition, previously reported (PLC): previously reported not to inhibit PLC |
| CCCCCCCCCCCCCCCCCCOP(=O)([O-])OCC[N+](C)(C)C [C18] | 59 ± 8 | 66 ± 11 |  | 30 ± 2 |  |  |
